Reference: patent US11414387B2, “Oxoacridinyl acetic acid derivatives and methods of use” (Stingthera, Inc., priority 2017, dated 2022)

What was measured:
hSTING-WT = hSTING-WT (Homo sapiens (Human), UniProt Q86WV6, H232R); assay: Radiometric filtration binding competition assay, hSTING-WT
hSTING-R232 = hSTING-R232 (Homo sapiens (Human), UniProt Q86WV6, H232R); assay: STING differential scanning fluorimetry (DSF) assay, WT human STING; settings: WT (R232) human STING aa140-379, net shift in melting temperature
Experimental: A STING DSF assay was performed to determine protein thermostability shift in response to small molecule ligand binding. A STING thermostability shift assay based on differential scanning fluorimetry was used to measure (1) the net shift in melting temperature (ΔTm)between the apo and ligand-bound states of the STING protein and (2) the concentration of the thermal denaturation transition (EC50) as a surrogate measure of binding affinity (K). […] Protein in assay buffer was transferred to a 384 well plate and incubated with the hydrophobic fluorescent dye SYBR Orange. A temperature ramp was applied to the plate and the resulting dye fluorescence was plotted as a function of temperature. The first derivative of this function (dF/dT) was then used to extrapolate the melting temperature of the protein at various concentrations of compound and determine the thermal denaturation profile of a protein/compound complex.
• 1. Protein construct (affinity tag removal vs SUMO-fusion construct) • 2. Protein concentration • 3. Dye concentration • 4. Buffer • 5. Thermal ramp velocity • 6. DMSO tolerance • 7. Compound titration parameters • 8. […] 5 μM purified Target STING Protein • 3. 8 μM Sypro Orange Dye • 4. Buffer: 100 mM NaCl, 30 mM HEPES, pH 7.5 • 5. Thermal Ramp: 0.5° C./min • 6. <1% DMSO • 7. 11 point, 2 fold dilution, duplicate, 300 μM high concentrations • 8.

STING protein = STING protein (Homo sapiens (Human), UniProt Q86WV6, H232R); assay: Cell based reporter assay of IRF activation (IRF-luciferase), THP1-dual-KI R232; settings: read-out: THP1-dual-KI R232_IRF(Luciferase)_Activity Maximum measured (%)
Chain of STING protein (Q86WV6 whole entry H232R): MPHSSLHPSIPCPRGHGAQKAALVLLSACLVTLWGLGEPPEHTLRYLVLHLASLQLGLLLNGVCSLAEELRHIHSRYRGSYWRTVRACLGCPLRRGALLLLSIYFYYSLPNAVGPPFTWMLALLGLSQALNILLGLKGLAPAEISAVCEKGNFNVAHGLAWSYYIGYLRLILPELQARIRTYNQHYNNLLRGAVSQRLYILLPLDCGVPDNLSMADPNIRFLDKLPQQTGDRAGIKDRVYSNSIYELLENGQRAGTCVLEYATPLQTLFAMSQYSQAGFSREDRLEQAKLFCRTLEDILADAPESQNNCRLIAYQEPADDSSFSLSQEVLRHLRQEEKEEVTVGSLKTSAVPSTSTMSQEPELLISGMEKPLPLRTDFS

Chain of hSTING-WT (Q86WV6 140-379 H232R): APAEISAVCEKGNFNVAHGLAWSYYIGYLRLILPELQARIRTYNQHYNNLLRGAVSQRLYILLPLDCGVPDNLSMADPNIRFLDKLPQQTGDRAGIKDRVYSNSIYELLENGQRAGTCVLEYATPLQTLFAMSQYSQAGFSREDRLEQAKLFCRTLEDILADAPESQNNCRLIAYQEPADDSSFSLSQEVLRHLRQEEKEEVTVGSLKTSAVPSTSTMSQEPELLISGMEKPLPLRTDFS
Chain of hSTING-R232 (Q86WV6 140-379 H232R): as above

SMILES	IC50 (hSTING-WT) [µM]	WT_DSF_hSWAT Tm Shift (° C.) (hSTING-R232)	Emax (STING protein) [%]
CC(C)Nc1ccc2c(=O)c3ccc(Cl)c(-c4ccccc4)c3n(CC(=O)O)c2c1 [Compound 336]	< 20	D (“D” > 7° C.)	> 50
COc1c(Cl)ccc2c(=O)c3ccc(C4=CCCOC4)cc3n(CC(=O)O)c12 [Compound 252]	20 to 100	D (“D” > 7° C.)	
O=C(O)Cn1c2cc(-c3nccs3)ccc2c(=O)c2ccc(Cl)c(Cl)c21 [Compound 187]	100 to 300	B (“B” = 0-2° C.)	
COc1c(Cl)ccc2c(=O)c3ccc(C4CCOCC4)cc3n(CC(=O)O)c12 [Compound 255]	20 to 100	C (“C” = 2-7° C,)	
COc1c(Cl)ccc2c(=O)c3ccc(C4=CCOCC4)cc3n(CC(=O)O)c12 [Compound 254]	20 to 100	D (“D” > 7° C.)	> 50
COc1c(Cl)ccc2c(=O)c3ccc(-c4ccncc4)cc3n(CC(=O)O)c12 [Compound 278]	20 to 100	D (“D” > 7° C.)	> 50
CC(C)Oc1c(Cl)ccc2c(=O)c3ccccc3n(CC(=O)O)c12 [Compound 246]	100 to 300	C (“C” = 2-7° C,)	
CC(C)(O)c1ccc2c(=O)c3ccc(Cl)c(Cl)c3n(CC(=O)O)c2c1 [Compound 168]	100 to 300	A (“A” < 0° C.)	
CC(C)c1ccc2c(c1)c1ccc(Cl)c(Cl)c1n2CC(=O)O [Compound 240]	20 to 100		
O=C(Cn1c2ccccc2c(=O)c2ccc(Cl)c(Cl)c21)NO [Compound 353]	100 to 300	A (“A” < 0° C.)	
C[C@@H]1CCCN1c1ccc2c(=O)c3ccc(Cl)c(Br)c3n(CC(=O)O)c2c1 [Compound 203]	20 to 100	C (“C” = 2-7° C,)	> 50
O=C(O)Cn1c2cc(C3CCC(O)CC3)ccc2c(=O)c2ccc(Cl)c(Cl)c21 (centres unmarked) [Compound 214]	20 to 100	D (“D” > 7° C.)	
O=C(O)Cn1c2cc(-c3cccnc3)ccc2c(=O)c2ccc(Cl)c(Cl)c21 [Compound 190]	> 300	C (“C” = 2-7° C,)	
COc1c(Cl)ccc2c(=O)c3cc(F)c(C(C)C)cc3n(CC(=O)O)c12 [Compound 248]	> 300	B (“B” = 0-2° C.)	
O=C(O)Cn1c2cc(Nc3cnc(Cl)cn3)ccc2c(=O)c2ccc(Cl)c(Cl)c21 [Compound 258]	20 to 100	D (“D” > 7° C.)	< 5
CC(C)c1ccc2c(=O)c3ccc(Cl)c(Cl)c3n(CC(=O)NS(C)(=O)=O)c2c1 [Compound 352]	20 to 100	C (“C” = 2-7° C,)	> 50
O=C(O)Cn1c2ccccc2c(=O)c2ccc(Cl)c(OC3CCC3)c21 [Compound 247]	100 to 300	A (“A” < 0° C.)	
CC(C)Sc1ccc2c(=O)c3ccc(Cl)c(Cl)c3n(CC(=O)O)c2c1 [Compound 149]	100 to 300	C (“C” = 2-7° C,)	< 5
COc1c(Cl)ccc2c(=O)c3ccc(S(C)(=O)=O)cc3n(CC(=O)O)c12 [Compound 249]	> 300	B (“B” = 0-2° C.)	
CNc1ccc2c(=O)c3ccc(Cl)c(OC)c3n(CC(=O)O)c2c1 [Compound 299]	20 to 100	C (“C” = 2-7° C,)	> 50
COc1c(Cl)ccc2c(=O)c3ccc(SC4CCCCC4)cc3n(CC(=O)O)c12 [Compound 233]	< 20	D (“D” > 7° C.)	> 50
CC(C)c1ccc2c3ccc(Cl)c(Cl)c3n(CC(=O)O)c2c1 [Compound 210]	20 to 100	A (“A” < 0° C.)	< 5
COc1c(Cl)ccc2c(=O)c3ccc(-c4ccoc4)cc3n(CC(=O)O)c12 [Compound 277]	< 20	D (“D” > 7° C.)	> 50
O=C(O)CCCn1c2ccccc2c(=O)c2ccc(Cl)c(Cl)c21 [Compound 205]	> 300	A (“A” < 0° C.)	
CSc1ccc2c(=O)c3ccc(Cl)c(Cl)c3n(CC(=O)O)c2c1 [Compound 137]	100 to 300	C (“C” = 2-7° C,)	25 to 50
C[C@@H](C(=O)O)n1c2ccccc2c(=O)c2ccc(Cl)c(Cl)c21 [Compound 100]	> 300	A (“A” < 0° C.)	
O=C(O)Cn1c2cc(-c3ccco3)ccc2c(=O)c2ccc(Cl)c(Cl)c21 [Compound 186]	20 to 100	C (“C” = 2-7° C,)	25 to 50
COc1c(Cl)ccc2c(=O)c3ccc(C)cc3n(CC(=O)NS(=O)(=O)C3CC3)c12 [Compound 348]	100 to 300	C (“C” = 2-7° C,)	> 50

SMILES	IC50 (hSTING-WT) [µM]	WT_DSF_hSWAT Tm Shift (° C.) (hSTING-R232)	Emax (STING protein) [%]
O=C(O)Cn1c2cc(-c3cc[nH]n3)ccc2c(=O)c2ccc(Cl)c(Cl)c21 [Compound 182]	100 to 300	C (“C” = 2-7° C,)	
O=C(O)Cn1c2cc(N3CCCC3)ccc2c(=O)c2ccc(Cl)c(Br)c21 [Compound 201]	100 to 300	C (“C” = 2-7° C,)	5 to 25
CC(O)c1ccc2c(=O)c3ccc(Cl)c(Cl)c3n(CC(=O)O)c2c1 (centres unmarked) [Compound 191]	> 300	B (“B” = 0-2° C.)	
O=C(O)Cn1c2cc(C(O)(C(F)(F)F)C(F)(F)F)ccc2c(=O)c2ccc(Cl)c(Cl)c21 [Compound 167]	> 300	A (“A” < 0° C.)	
Cn1ccnc1-c1ccc2c(=O)c3ccc(Cl)c(Cl)c3n(CC(=O)O)c2c1 [Compound 188]	> 300	A (“A” < 0° C.)	
O=C(O)Cn1c2cc(C3CCC(O)CC3)ccc2c(=O)c2ccc(Cl)c(Cl)c21 (centres unmarked) [Compound 264]		C (“C” = 2-7° C,)	5 to 25
CSc1c(Cl)ccc2c(=O)c3ccc(Nc4ccc(F)cc4)cc3n(CC(=O)O)c12 [Compound 259]	< 20	D (“D” > 7° C.)	
CCOc1c(Cl)ccc2c(=O)c3ccc(C(C)(C)C)cc3n(CC(=O)O)c12 [Compound 224]	20 to 100		
COc1c(Cl)ccc2c(=O)c3ccc(C)cc3n(CC(=O)NS(C)(=O)=O)c12 [Compound 347]	100 to 300	C (“C” = 2-7° C,)	> 50
COc1c(Cl)ccc2c(=O)c3ccc(NC(C)C)cc3n(CC(=O)O)c12 [Compound 300]	20 to 100	C (“C” = 2-7° C,)	> 50
COc1c(Cl)ccc2c(=O)c3ccc(C4CCCNC4)cc3n(CC(=O)O)c12 (centres unmarked) [Compound 227]	> 300	C (“C” = 2-7° C,)	< 5
COc1ccc2c(=O)c3ccccc3n(CC(=O)O)c2c1OC [Compound 265]	> 300	B (“B” = 0-2° C.)	< 5
COc1c(Cl)ccc2c(=O)c3ccc(-c4cccc(C)c4)cc3n(CC(=O)O)c12 [Compound 238]	< 20	D (“D” > 7° C.)	> 50
O=C(O)Cn1c2ccccc2c2ccc(Cl)c(Cl)c21 [Compound 209]	> 300	A (“A” < 0° C.)	
O=C(O)Cn1c2cc([C@H]3CC[C@H](O)CC3)ccc2c(=O)c2ccc(Cl)c(Cl)c21 [Compound 264]	< 20		
CCOc1c(Cl)ccc2c(=O)c3ccc(C)cc3n(CC(=O)O)c12 [Compound 282]	20 to 100	D (“D” > 7° C.)	> 50
COc1c(Cl)ccc2c(=O)c3ccc(C(C)C)cc3n(CC(=O)O)c12 [Compound 245]	20 to 100	D (“D” > 7° C.)	
COc1c(Cl)ccc2c(=O)c3ccc(C)cc3n(CC(=O)NC#N)c12 [Compound 338]	100 to 300	C (“C” = 2-7° C,)	25 to 50
O=C(O)Cn1c2ccccc2c(=O)c2ccc(Cl)c(-c3cccnc3)c21 [Compound 334]	> 300	C (“C” = 2-7° C,)	< 5
CC(C)c1ccc2c(=O)c3ccc(I)c(Cl)c3n(CC(=O)O)c2c1 [Compound 195]	> 300	C (“C” = 2-7° C,)	
COc1c(Cl)ccc2c(=O)c3ccc(C)cc3n(CC(=O)O)c12 [Compound 280]	20 to 100	D (“D” > 7° C.)	> 50
CSc1ccc2c(=O)c3ccc(Cl)c(Br)c3n(CC(=O)O)c2c1 [Compound 196]	20 to 100	D (“D” > 7° C.)	
CN(C)c1c(Cl)ccc2c(=O)c3ccccc3n(CC(=O)O)c12 [Compound 136]	20 to 100	D (“D” > 7° C.)	
O=C(O)Cn1c2cc(C(F)F)ccc2c(=O)c2ccc(Cl)c(Cl)c21 [Compound 166]	> 300	B (“B” = 0-2° C.)	
Cn1ccc(-c2ccc3c(=O)c4ccc(Cl)c(Cl)c4n(CC(=O)O)c3c2)n1 [Compound 184]	> 300	C (“C” = 2-7° C,)	
COc1c(Cl)ccc2c(=O)c3ccc(Nc4ccc(O)cc4)cc3n(CC(=O)O)c12 [Compound 236]	< 20	D (“D” > 7° C.)	
C[C@H](C(=O)O)n1c2ccccc2c(=O)c2ccc(Cl)c(Cl)c21 [Compound 101]	> 300	A (“A” < 0° C.)	
